Test results published in paper PMC6421297, “Novel Mouse Tauopathy Model for Repetitive Mild Traumatic Brain Injury: Evaluation of Long-Term Effects on Cognition and Biomarker Levels After Therapeutic Inhibition of Tau Phosphorylation” (Frontiers in Neurology, 2019).

Legend:
[1] = system: tau phosphorylation at Thr231 and Ser202 in SH-SY5Y-(P301L) cells; format: cell-based; settings: 6 h
Description: (§1) SH-SY5Y-P301L cells (gift from Prof. Fred Van Leuven, Department of Human Genetics, KU Leuven, Belgium) were cultured Dulbecco's Modified Eagle Medium (DMEM):Nutrient Mixture F-12 (DMEM/F-12, Gibco, c/o Invitrogen, Saint Aubin, France) containing 1% Penicillin-Streptomycin mixture (Gibco) and 10% fetal bovine serum (FBS, Gibco) in a humidified, 5% CO2 incubator at 37°C. Cells were split routinely once a week. Cells were seeded at a density of 1.5 x 10^6 cells/well in P60 well plates with 4 ml medium/well and exposed for 6 h to a range of ros concentrations (Figures 2–4) or to a few concentrations of various kinase inhibitors with different selectivities (Figure 3). At the end of the incubation cells were harvested for Western blotting. Cells were scraped in cold phosphate-buffered saline, centrifuged at 10,000 x g for 5 min at 4°C, and pellets were snap-frozen in liquid nitrogen. Experiments were repeated three or four times.
(§2) For Western blot analysis, cell pellets were lysed in homogenization buffer (25 mM MOPS, 15 mM EGTA, 15 mM MgCl2, 60 mM β-glycerophosphate, 15 mM p-nitrophenylphosphate, 2 mM dithiothreitol (DTT), 1 mM Na3VO4, 1 mM NaF, 1 mM disodium phenylphosphate, 1x protease inhibitor cocktail, 0.2% Nonidet P-40 substitute). Protein extracts were mixed (1:1 v/v) with sample buffer (2 × NuPAGE LDS sample buffer, 200 mM DTT) and 20 μg of total protein was loaded on NuPAGE 4–12% Bis-Tris protein gels. Electrophoresis was carried out at 70 V in MOPS buffer for 4 h. Rapid blot transfers were performed at 2.5A/25V for 7 min. […] P-tau and T-tau signals were first normalized to GAPDH from the same membranes, and then divided one by another to obtain the level of pS202 or pT231 relative to T-tau. Values are presented as mean±SEM of three or four independent experiments.

epileptic rats = system: epileptic rats; parameters: method as in PMID 28595035; settings: cited from earlier work
[2] = system: S202-Tau phosphorylation in SH-SY5Y-(P301L) cells; assay: Western blot of pS202-tau/T-tau in SH-SY5Y-(P301L) cells, roscovitine and/or LiCl, with coefficient of drug interaction; format: cell-based; settings: 6 h; for tau phosphorylation (pS202-tau), individual treatment: single agent
Description: as §1, §2
For cell cultures and immunoblotting data the two-tailed unpaired t-test (Graphpad Prism) was used. Coefficients of drug interaction (CDI) were calculated as follows: CDI = AB/(A × B). According to the ratio pS202 tau/T-tau of each group, AB is the ratio of the combination groups to control group; A or B is the ratio of the single agent group to control group. […]

mice following TBI = settings: cited from earlier work

Structure (SMILES)	Inhibition of tau phosphorylation at Thr231 and Ser202 ([1]; 25, 50, and 100 μM)	reduction of tau phosphorylation by inhibitors to secondary kinase targets ([1]; 25, 50, and 100 μM)	also measured
O=C(NC1CCNCC1)c1[nH]ncc1NC(=O)c1c(Cl)cccc1Cl [AT7519]	evident	–	–
CC[C@H](CO)Nc1nc(NCc2ccc(-c3ccccn3)cc2)c2ncn(C(C)C)c2n1 [CR8]	evident	–	–
NC(=O)c1ccc(-c2nc(-c3ccc4c(c3)OCCO4)c(-c3ccccn3)[nH]2)cc1 [D4476]	–	none of the inhibitors to secondary kinase targets reduced tau phosphorylation	–
COc1cc(OC)c(C=C2C(O)=Nc3ccccc32)c(OC)c1 [IC261]	–	–	activity at site pSer202 ([1]; 25, 50, and 100 μM): active
O=C1NC(Nc2ccccc2)=N/C1=C\c1ccc2c(c1)OCO2 [Leucettine 41]	–	none of the inhibitors to secondary kinase targets reduced tau phosphorylation	–
[Cl-].[Li+] [LiCl, lithium chloride]	–	–	epilepsy-induced axonal impairment (epileptic rats): reversed axonal impairment; dose-response of pS202-tau inhibition, LiCl alone ([2]; LiCl alone): no dose-response relationship; tau phosphorylation (pS202-tau), individual treatment [2]: slightly down-regulated
CC[C@@H](CO)Nc1nc(N(C)Cc2ccc(-c3ccccn3)cc2)c2ncn(C(C)C)c2n1 [N6-methyl-CR8]	not	–	cause of decreases in P-tau at the high dose ([1]; 100 μM): likely the result of drug-associated cell toxicity
CCC(CO)Nc1nc(N(C)Cc2ccccc2)c2ncn(C(C)C)c2n1 (centres unmarked) [N6-methyl-roscovitine]	not	–	–
COc1cccc(-c2cc(=O)c3ccccc3o2)c1N [PD098059]	–	none of the inhibitors to secondary kinase targets reduced tau phosphorylation	–
CC[C@H](CO)Nc1nc(NCc2ccccc2)c2ncn(C(C)C)c2n1 [Roscovitine, (R)-roscovitine]	evident	–	epilepsy-induced axonal impairment (epileptic rats): reversed axonal impairment; cognitive deficits, spatial learning and memory after TBI (mice following TBI): attenuated cognitive deficits and improved spatial learning and memory; inhibition of Ser202 phosphorylation, ros alone ([2]; ros alone): moderate and dose-dependent inhibition; tau phosphorylation (pS202-tau), individual treatment [2]: slightly down-regulated; inhibition of Thr231 and Ser202 phosphorylation ([1]; range of ros concentrations): dose-dependent inhibition
CCc1cnn2c(NCc3ccc[n+]([O-])c3)cc(N3CCCC[C@H]3CCO)nc12 [SCH727965]	evident	–	–
CC(C)(C)c1cnc(CSc2cnc(NC(=O)C3CCNCC3)s2)o1 [SNS-032, N-[5-[[[5-(1,1-dimethylethyl)-2-oxazolyl]methyl]thio]-2-thiazolyl]-4-piperidinecarboxamide]	evident	–	–
CCN1/C(=C/C(C)=O)Sc2ccc(OC)cc21 [TG003]	–	none of the inhibitors to secondary kinase targets reduced tau phosphorylation	–
N#CC(=C(/N)Sc1ccccc1N)/C(C#N)=C(/N)Sc1ccccc1N [UO126]	–	none of the inhibitors to secondary kinase targets reduced tau phosphorylation	–
COc1ccc2c(c1)[nH]c1c(C)nccc12 [harmine]	–	none of the inhibitors to secondary kinase targets reduced tau phosphorylation	–
